The target of one assay is T1, human PAH with the R408W mutation (Homo sapiens, UniProt P00439, R408W).
T1 construct: expressed in transfected cells
T1 sequence (P00439 1-452 R408W): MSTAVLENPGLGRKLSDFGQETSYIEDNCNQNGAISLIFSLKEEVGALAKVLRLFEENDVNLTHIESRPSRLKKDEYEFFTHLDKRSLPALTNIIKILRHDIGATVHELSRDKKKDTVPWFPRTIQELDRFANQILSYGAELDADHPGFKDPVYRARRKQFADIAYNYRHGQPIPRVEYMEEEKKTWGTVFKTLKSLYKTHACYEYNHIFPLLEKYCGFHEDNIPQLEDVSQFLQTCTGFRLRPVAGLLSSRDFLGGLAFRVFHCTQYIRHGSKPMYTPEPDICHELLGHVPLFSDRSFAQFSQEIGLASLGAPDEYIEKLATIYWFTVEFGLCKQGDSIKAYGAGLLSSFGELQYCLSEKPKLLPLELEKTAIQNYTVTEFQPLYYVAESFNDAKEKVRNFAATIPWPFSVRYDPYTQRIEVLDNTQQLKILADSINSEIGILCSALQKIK
Put plainly: Cell Based Phenylalanine Flux Assay.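 Note: after compound treatment, cells received sepiapterin plus isotope-labelled Phenylalanine for 4 hours, then labelled Tyrosine in the medium was quantified, 10-point 2-fold dilution series run in duplicate.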 The note with it: A375 cells expressing R408W PAH; 24 hrs with compound, then 20 µM sepiapterin and 800 µM 13C9,15N-Phenylalanine for 4 hours; 13C-Tyrosine by LC-MS; average where tested multiple times; read-out: AC50.
As for `Cn1cc(-c2nnc(C(=O)N3CCc4[nH]cnc4[C@@H]3c3cc4cc(F)ccn4n3)o2)cn1` (single isomer, unassigned), the AC50 fell in the range of 1000 to 5000 nM. Take `CC(C)(O)c1nnc(C(=O)N2CCc3[nH]cnc3C2c2cc3ccc(F)cn3n2)o1` (centres unmarked): the AC50 is 1000 to 5000 nM. On the same count and under the same terms, the same measure for `Cn1cc(-c2ncc(C(=O)N3CCc4[nH]cnc4C3c3cc4c(F)cccn4n3)o2)cn1` (centres unmarked): over 5000 nM.

The same assay, now with this note: A375 cells expressing human PAH R408W; 24 hrs compound incubation; 13C-Tyrosine by LC-MS; average where tested multiple times; read-out: AC50.
Consider `O=C(c1cnn2ccccc12)N1CCc2[nH]cnc2[C@H]1c1cc2cccc(Cl)n2n1` [Example 2424, (S)-(4-(7-chloropyrazolo[1,5-a]pyridin-2-yl)-6,7-dihydro-1H-imidazo[4,5-c]pyridin-5(4H)-yl)(pyrazolo[1,5-a]pyridin-3-yl)methanone], for which the AC50 fell in the range of 1000 to 5000 nM. Consider `Fc1cccn2nc([C@@H]3c4nc[nH]c4CCN3c3ccccc3)cc12` [Example 2313, (S)-4-(4-fluoropyrazolo[1,5-a]pyridin-2-yl)-5-phenyl-4,5,6,7-tetrahydro-1H-imidazo[4,5-c]pyridine], for which the AC50 was under 500 nM.

For the molecule `O=C(c1cnc(-c2cnccn2)o1)N1CCc2[nH]cnc2[C@@H]1c1cc2c(F)cccn2n1` [Example 2517, (R)-(4-(4-fluoropyrazolo[1,5-a]pyridin-2-yl)-1,4,6,7-tetrahydro-5H-imidazo[4,5-c]pyridin-5-yl)(2-(pyrazin-2-yl)oxazol-5-yl)methanone], the half-maximal activity concentration (AC50) is over 5000 nM.

Turning to `Cc1nnc(C(=O)N2CCc3[nH]cnc3[C@H]2c2cc3c(C(C)C)cccn3n2)o1` [Example 1858, (S)-(4-(4-isopropylpyrazolo[1,5-a]pyridin-2-yl)-1,4,6,7-tetrahydro-5H-imidazo[4,5-c]pyridin-5-yl)(5-methyl-1,3,4-oxadiazol-2-yl)methanone], the half-maximal activity concentration (AC50) was under 500 nM.

As for `CC(C)c1nnc(N2CCc3[nH]cnc3[C@H]2c2cc3ccccn3n2)o1` [Example 2301, (S)-2-isopropyl-5-(4-(pyrazolo[1,5-a]pyridin-2-yl)-1,4,6,7-tetrahydro-5H-imidazo[4,5-c]pyridin-5-yl)-1,3,4-oxadiazole], the AC50 is 500 to 1000 nM.

In the case of `Cc1cc(-c2nnc(C(=O)N3CCc4[nH]cnc4[C@@H]3c3cc4c(F)cccn4n3)o2)n[nH]1` [Example 2294, (R)-(4-(4-fluoropyrazolo[1,5-a]pyridin-2-yl)-1,4,6,7-tetrahydro-5H-imidazo[4,5-c]pyridin-5-yl)(5-(5-methyl-1H-pyrazol-3-yl)-1,3,4-oxadiazol-2-yl)methanone], the AC50 was over 5000 nM.

With `CC(C)c1cccn2nc([C@H]3c4nc[nH]c4CCN3C(=O)c3nnc(-c4ncccc4F)o3)cc12` [Example 1907, (R)-(5-(3-fluoropyridin-2-yl)-1,3,4-oxadiazol-2-yl)(4-(4-isopropylpyrazolo[1,5-a]pyridin-2-yl)-1,4,6,7-tetrahydro-5H-imidazo[4,5-c]pyridin-5-yl)methanone], the AC50 was over 5000 nM. As for `Cc1cccn2nc([C@H]3c4nc[nH]c4CCN3C(=O)[C@@H]3CC3(F)F)cc12` [Example 2029, ((S)-2,2-difluorocyclopropyl)((R)-4-(4-methylpyrazolo[1,5-a]pyridin-2-yl)-1,4,6,7-tetrahydro-5H-imidazo[4,5-c]pyridin-5-yl)methanone], the concentration at half-maximal activity (AC50) was over 5000 nM.

Still in this assay, the particulars now being: A375 cells expressing human R408W PAH; 24 hrs compound incubation; 13C-Tyrosine by LC-MS; average where tested multiple times; read-out: AC50.
As to `CC(C)(O)c1nc(C(F)F)c(C(=O)N2CCc3[nH]cnc3[C@@H]2c2cc3c(F)cccn3n2)o1` [Example 715, (R)-(4-(difluoromethyl)-2-(2-hydroxypropan-2-yl)oxazol-5-yl)(4-(4-fluoropyrazolo[1,5-a]pyridin-2-yl)-6,7-dihydro-1H-imidazo[4,5-c]pyridin-5(4H)-yl)methanone], the half-maximal activity concentration (AC50) was over 5000 nM. As to `O=C(c1nnc(-c2ncccc2F)o1)N1CCc2[nH]cnc2[C@H]1c1cc2cccc(Cl)n2n1` [Example 982, (S)-(4-(7-chloropyrazolo[1,5-a]pyridin-2-yl)-6,7-dihydro-1H-imidazo[4,5-c]pyridin-5(4H)-yl)(5-(3-fluoropyridin-2-yl)-1,3,4-oxadiazol-2-yl)methanone], the half-maximal activity concentration (AC50) is under 500 nM. As to `Cc1cccn2nc([C@@H]3c4nc[nH]c4CCN3C(=O)c3nnc(-c4ccn(C(F)F)n4)o3)cc12` [Example 822, (S)-(5-(1-(difluoromethyl)-1H-pyrazol-3-yl)-1,3,4-oxadiazol-2-yl)(4-(4-methylpyrazolo[1,5-a]pyridin-2-yl)-6,7-dihydro-1H-imidazo[4,5-c]pyridin-5(4H)-yl)methanone], the AC50 was under 500 nM.

For the molecule `Cc1cccc2cc([C@@H]3c4nc[nH]c4CCN3C(=O)c3nnc(C(C)(C)F)o3)nn12` [Example 938, (S)-(5-(2-fluoropropan-2-yl)-1,3,4-oxadiazol-2-yl)(4-(7-methylpyrazolo[1,5-a]pyridin-2-yl)-6,7-dihydro-1H-imidazo[4,5-c]pyridin-5(4H)-yl)methanone], the AC50 was under 500 nM. For the molecule `N#Cc1ncoc1C(=O)N1CCc2[nH]cnc2[C@H]1c1cc2ccc(Cl)cn2n1` [Example 684, (S)-5-(4-(6-chloropyrazolo[1,5-a]pyridin-2-yl)-4,5,6,7-tetrahydro-1H-imidazo[4,5-c]pyridine-5-carbonyl)oxazole-4-carbonitrile], the AC50 lay in the range of 500 to 1000 nM. The same measure, in the same setting: the same measure for `Cc1cccc2cc([C@H]3c4nc[nH]c4CCN3C(=O)c3oc(C(C)(C)F)nc3C(F)F)nn12` [Example 1231, (R)-(4-(difluoromethyl)-2-(2-fluoropropan-2-yl)oxazol-5-yl)(4-(7-methylpyrazolo[1,5-a]pyridin-2-yl)-6,7-dihydro-1H-imidazo[4,5-c]pyridin-5(4H)-yl)methanone]: 1000 to 5000 nM; for `Cc1nn(C)cc1-c1nnc(C(=O)N2CCc3[nH]cnc3[C@H]2c2cc3c(F)cccn3n2)o1` [Example 846, (S)-(5-(1,3-dimethyl-1H-pyrazol-4-yl)-1,3,4-oxadiazol-2-yl)(4-(4-fluoropyrazolo[1,5-a]pyridin-2-yl)-6,7-dihydro-1H-imidazo[4,5-c]pyridin-5(4H)-yl)methanone]: under 500 nM.

Regarding `CCOc1cccc2cc([C@@H]3c4nc[nH]c4CCN3C(=O)c3nnc(C(C)(C)F)o3)nn12` [Example 1242, (S)-(4-(7-ethoxypyrazolo[1,5-a]pyridin-2-yl)-6,7-dihydro-1H-imidazo[4,5-c]pyridin-5(4H)-yl)(5-(2-fluoropropan-2-yl)-1,3,4-oxadiazol-2-yl)methanone], the half-maximal activity concentration (AC50) fell in the range of 1000 to 5000 nM.

`O=C(c1nnc(-c2cnn(CC(F)(F)F)c2)o1)N1CCc2[nH]cnc2[C@H]1c1cc2ccccn2n1` [Example 646, (S)-(4-(pyrazolo[1,5-a]pyridin-2-yl)-6,7-dihydro-1H-imidazo[4,5-c]pyridin-5(4H)-yl)(5-(1-(2,2,2-trifluoroethyl)-1H-pyrazol-4-yl)-1,3,4-oxadiazol-2-yl)methanone]: the concentration at half-maximal activity (AC50) is 1000 to 5000 nM. On the same count and under the same terms, the same measure for `CN(C)Cc1ccc2c(C(=O)N3CCc4[nH]cnc4[C@H]3c3cc4c(Cl)cccn4n3)cnn2c1` [Example 1634, (S)-(4-(4-chloropyrazolo[1,5-a]pyridin-2-yl)-6,7-dihydro-1H-imidazo[4,5-c]pyridin-5(4H)-yl)(6-((dimethylamino)methyl)pyrazolo[1,5-a]pyridin-3-yl)methanone]: 500 to 1000 nM; for `Cn1ccc(-c2ccc3c(C(=O)N4CCc5[nH]cnc5[C@H]4c4cc5cccc(C(F)(F)F)n5n4)cnn3c2)n1` [Example 1632, (S)-(6-(1-methyl-1H-pyrazol-3-yl)pyrazolo[1,5-a]pyridin-3-yl)(4-(7-(trifluoromethyl)pyrazolo[1,5-a]pyridin-2-yl)-6,7-dihydro-1H-imidazo[4,5-c]pyridin-5(4H)-yl)methanone]: 500 to 1000 nM; for `O=C(c1nnc(-c2ccn(C(F)F)n2)o1)N1CCc2[nH]cnc2[C@H]1c1cc2cccc(F)n2n1` [Example 1405, (S)-(5-(1-(difluoromethyl)-1H-pyrazol-3-yl)-1,3,4-oxadiazol-2-yl)(4-(7-fluoropyrazolo[1,5-a]pyridin-2-yl)-6,7-dihydro-1H-imidazo[4,5-c]pyridin-5(4H)-yl)methanone]: under 500 nM. Still for that read-out and setting: the same measure for `Cc1cccn2nc([C@H]3c4nc[nH]c4CCN3C(=O)c3nnc(-c4ccccn4)o3)cc12` [Example 740, (R)-(4-(4-methylpyrazolo[1,5-a]pyridin-2-yl)-6,7-dihydro-1H-imidazo[4,5-c]pyridin-5(4H)-yl)(5-(pyridin-2-yl)-1,3,4-oxadiazol-2-yl)methanone]: over 5000 nM; for `O=C(c1ocnc1C(F)F)N1CCc2[nH]cnc2[C@@H]1c1cc2ccc(F)cn2n1` [Example 1069, (R)-(4-(difluoromethyl)oxazol-5-yl)(4-(6-fluoropyrazolo[1,5-a]pyridin-2-yl)-6,7-dihydro-1H-imidazo[4,5-c]pyridin-5(4H)-yl)methanone]: 1000 to 5000 nM; for `O=C(c1nnc(-c2cnn(C(F)F)c2)o1)N1CCc2[nH]cnc2[C@H]1c1cc2c(Cl)cccn2n1` [Example 1134, (S)-(4-(4-chloropyrazolo[1,5-a]pyridin-2-yl)-6,7-dihydro-1H-imidazo[4,5-c]pyridin-5(4H)-yl)(5-(1-(difluoromethyl)-1H-pyrazol-4-yl)-1,3,4-oxadiazol-2-yl)methanone]: under 500 nM.

Values taken from patent US20230365592A1 (Agios Pharmaceuticals, Inc., priority 2022, published 2023).
